Assays:
[1] = system: Puccinia recondita; test: Curative activity against brown rust of wheat caused by Puccinia recondita; assay type: in vivo; conditions: wheat seedlings sprayed 1 day after inoculation, rated after 7 days, untreated 90%; for Infection in % at 4 ppm using PUCCRT K1: Use Example 2
Method: The active compounds were prepared as a stock solution with 25 mg of active compound which was made up to 10 ml with a mixture of acetone and/or DMSO and the emulsifier Uniperol® EL (wetting agent having emulsifying and dispersing action based on ethoxylated alkyl phenols) in a volume ratio solvent/emulsifier of 99 to 1. The solution was then made up to 100 ml with water. This stock solution was diluted to the active compound concentrations stated below using the solvent/emulsifier/water mixture described. Curative Activity Against Brown Rust of Wheat Caused by Puccinia Recondita Leaves of potted wheat seedlings of the cultivar “Kanzler” were inoculated with a spore suspension of brown rust (Puccinia recondita). The pots were then placed in a chamber with high atmospheric humidity (90 to 95%) and at 20-22° C. for 24 hours. During this time, the spores germinated and the germ tubes penetrated into the leaf tissue. The next day, the infected plants were sprayed to runoff point with an aqueous suspension having the concentration of active compounds stated below. The suspension or emulsion was prepared as described above. After the spray coating had dried on, the test plants were cultivated in a greenhouse at temperatures between 20 and 22° C. and at 65 to 70% relative atmospheric humidity for 7 days. The extent of the rust fungus development on the leaves was then determined. Curative Activity Against Brown Rust of Wheat Caused by Puccinia Recondita Leaves of potted wheat seedlings of the cultivar “Kanzler” were inoculated with a spore suspension of brown rust (Puccinia recondita). The pots were then placed in a chamber with high atmospheric humidity (90 to 95%) and at 20-22° C. for 24 hours During this time, the spores germinated and the germ tubes penetrated into the leaf tissue. The next day, the infected plants were sprayed to runoff point with an aqueous suspension having the concentration of active compounds stated below. The suspension or emulsion was prepared as described above. After the spray coating had dried on, the test plants were cultivated in a greenhouse at temperatures between 20 and 22° C. and at 65 to 70% relative atmospheric humidity for 7 days. The extent of the rust fungus development on the leaves was then determined. Curative Activity Against Brown Rust of Wheat Caused by Puccinia Recondita Leaves of potted wheat seedlings of the cultivar “Kanzler” were inoculated with a spore suspension of brown rust (Puccinia recondita). The pots were then placed in a chamber with high atmospheric humidity (90 to 95%) and at 20-22° C. for 24 hours. During this time, the spores germinated and the germ tubes penetrated into the leaf tissue. The next day, the infected plants were sprayed to runoff point with an aqueous suspension having the concentration of active compounds stated below. The suspension or emulsion was prepared as described above. After the spray coating had dried on, the test plants were cultivated in a greenhouse at temperatures between 20 and 22° C. and at 65 to 70% relative atmospheric humidity for 7 days. The extent of the rust fungus development on the leaves was then determined.

[2] = system: Botrytis cinerea; test: Activity against gray mold on bell pepper leaves caused by Botrytis cinerea, protective application; assay type: in vivo; conditions: visual rating after 5 days, untreated 90%
Method: The active compounds were prepared as a stock solution with 25 mg of active compound which was made up to 10 ml with a mixture of acetone and/or DMSO and the emulsifier Uniperol® EL (wetting agent having emulsifying and dispersing action based on ethoxylated alkyl phenols) in a volume ratio solvent/emulsifier of 99 to 1. The solution was then made up to 100 ml with water. This stock solution was diluted to the active compound concentrations stated below using the solvent/emulsifier/water mixture described. Activity Against Gray Mold on Bell Pepper Leaves Caused by Botrytis Cinerea Protective Application Bell pepper seedlings of the cultivar “Neusiedler Ideal Elite” were, after 2-3 leaves were well developed, sprayed to runoff point with an aqueous suspension having the concentration of active compounds stated below. The next day, the treated plants were inoculated with a spore suspension of Botrytis cinerea which contained 1.7×10^6 spores/ml in a 2% strength aqueous biomalt solution. The test plants were then placed in a dark climatized chamber at 22-24° C. and high atmospheric humidity. After 5 days, the extent of the fungal infection on the leaves could be determined visually in %. […]

[3] = Use Example 4, bell pepper seedlings sprayed 1 day before inoculation
[4] = Use Example 1, bell pepper seedlings sprayed 1 day before inoculation

Structure (SMILES) | Infection in % at 250 ppm using PUCCRT K1 ([1]; Use Example 3) [%] | Infection in % at 4 ppm using BOTRCI P1 [2, 3] [%] | Infection in % at 250 ppm using PUCCRT K1 ([1]; Use Example 5) [%] | Infection in % at 4 ppm using BOTRCI P1 [2, 4] [%] | Infection in % at 4 ppm using PUCCRT K1 [1] [%]
COc1ccc(-c2ccccc2NC(=O)c2cn(C)nc2C(F)(F)F)cc1 [Comp. 38of EP-A05 89 301] | 60 | – | – | – | –
Cc1cc(Cl)ccc1-c1ccccc1NC(=O)c1cn(C)nc1C(F)(F)F [67.8] | – | 0 | 0 | – | –
COc1ccc(-c2ccccc2NC(=O)c2cn(C)nc2C(F)(F)F)c(F)c1 [Comp. 67.14] | 7 | – | – | – | –
Cn1cc(C(=O)Nc2ccccc2-c2ccc(F)c(F)c2)c(C(F)(F)F)n1 [Comp. 67.4] | – | – | – | 40 | 5
Cc1ccccc1-c1ccccc1NC(=O)c1cn(C)nc1C(F)(F)F [Comp. 41of EP-A05 89 301] | – | 25 | 60 | – | –
Cn1cc(C(=O)Nc2ccccc2-c2ccc(F)cc2)c(C(F)(F)F)n1 [Comp. 37of EP-A05 89 301] | – | – | – | 70 | 30

— US20090036509A1, “N-(Ortho-Phenyl)-1-Methyl -3-Trifluoromethlpyrazole-4-Carboxanilides and Their Use as Fungicides” (BASF Aktiengesellschaft, priority 2004, published 2009)
